Data taken from US20220296613A1, “FOOD-INDEPENDENT DOSING OF CV-10155 TO TREAT GABAA DISORDERS” (priority 2021, published 2022).
Like-named read-outs stand apart in the source and are kept apart here.

[1] = HV, 60 mg evening dosing (n = 12)
[2] = humans, 60 mg, day 7 MAD, morning dosing, fasted
[3] = humans, 60 mg, evening, fed state, N = 9
[4] = humans, 60 mg, morning, fasted state, N = 9
[5] = humans, evening, fed state, subject a, dosing day 1
[6] = humans, evening, fed state, subject l, dosing day 1
[7] = humans, evening, fed state, subject o, dosing day 3
[8] = humans, evening, fed state, subject p, dosing day 2
[9] = humans, evening, fed state, subject p, dosing day 7
[10] = humans, evening, fed state, subject p, dosing day 8
[11] = humans, evening, fed state, subject v, dosing day 4

## C[C@@]1(O)CC[C@@]2(C)[C@@H](CC[C@@H]3[C@@H]2CC[C@]2(C)[C@@H](C(=O)Cn4cc(C#N)cn4)CC[C@@H]32)C1 [CV-10155, 1-[2-[(3R,5S,8R,9S,10S,13S,14S,17S)-3-hydroxy-3,10,13-trimethyl-1,2,4,5,6,7,8,9,11,12,14,15,16,17-tetradecahydrocyclopenta[a]phenanthren-17-yl]-2-oxoethyl]pyrazole-4-carbonitrile]
[1]
  Dizziness, AEs % of subjects: 16.7%
  Headache, AEs % of subjects: 8.3%
  Somnolence, AEs % of subjects: 8.3%
human, in vivo, 60 mg
  Racc AUC: 1.84
humans, 60 mg daily in the evening in a fed state
  ratio of Cmax/trough on day 7: 3.47
humans, 60 mg daily in the morning in a fasted state
  ratio of Cmax/trough on day 7: 6.09
humans, 60 mg dosed in the evening
  tolerability profile compared to PRAX-114 and Sage-217: favorable tolerability profile compared to PRAX-114 and one comparable to that of Sage-217
humans, 60 mg doses
  exposure levels in humans vs 30 mg doses of Sage-217: higher exposure levels
humans, 60 mg orally once per day for seven days
  absorption, morning fasted vs evening fed: no significant difference in absorption
[2]
  Cmin: 41.5 ng/mL
  Ratio (Cmax/Cmin): 6.07
[3]
  AE Back pain (Musculoskeletal and connective tissue disorders), #: 1
  AE Bloating (Gastrointestinal disorders), #: 1
  AE Dizziness (Nervous system disorders), #: 1
  AE Headache (Nervous system disorders), #: 2
humans, 60 mg, evening, fed state, N = 9, printed on two separate lines
  AE Sleepiness (Nervous system disorders), #: 1
[4]
  AE Dizziness (Nervous system disorders), #: 1
  AE Feeling sleepy (Nervous system disorders), #: 1
  AE Feeling tired (General disorders and administration site conditions), #: 2
  AE Headache (Nervous system disorders), #: 2
  AE Sleepiness (Nervous system disorders), #: 9
  AE Tiredness (General disorders and administration site conditions), #: 3
[5]
  Somnolence: duration: 10.62 h
  Somnolence: severity: Mild
[6]
  Headache: duration: 13.25 h
  Headache: onset from dose: pre-dose
  Headache: severity: Mild
[7]
  Abdominal distension: duration: 06.50 h
  Abdominal distension: severity: Mild
[8]
  Dizziness: duration: 20.50 h
  Dizziness: severity: Mild
[9]
  Dizziness: duration: 13.00 h
  Dizziness: severity: Mild
[10]
  Headache: duration: 14.50 h
  Headache: severity: Moderate
[11]
  Back pain: duration: 39.25 h
  Back pain: severity: Mild
humans, oral administration in the evening to fed subjects
  adverse effects that interfere with sleeping: does not produce adverse effects that interfere with sleeping
